# Data taken from US5567692A, “9-[(substituted glycyl) amido)]-6-demethyl-6-deoxytetracyclines” (priority 1995, dated 1996).
# Columns and labels:
# Assay type in all cases: cell-based
# [1] = tested on: Moraxella catarrhalis; assay: MIC range, recent clinical and veterinary isolates; conditions: 18 h, read-out: MIC Range
# [2] = tested on: Clostridium spp.; assay: MIC range, recent clinical and veterinary isolates; conditions: [9] isolates
# [3] = tested on: S. aureus UBMS 90-3; assay: MIC, agar dilution; conditions: Staphylococcus aureus, UBMS903, 18 h, S. aureus UBMS 90-3
# [4] = tested on: Citrobacter diversus; assay: MIC range, recent clinical and veterinary isolates; conditions: Citrobacter koseri, 18 h, read-out: MIC Range
# [5] = tested on: Streptococcus agalactiae; assay: MIC range, recent clinical and veterinary isolates; conditions: 18 h, read-out: MIC Range
# [6] = tested on: Pseudomonas aeruginosa; assay: MIC range, recent clinical and veterinary isolates; conditions: 18 h, read-out: MIC Range
# [7] = tested on: Enterococcus faecium; assay: MIC range, recent clinical and veterinary isolates; conditions: 18 h, read-out: MIC Range
# [8] = tested on: Xanthamonas maltophilia; assay: MIC range, recent clinical and veterinary isolates; conditions: 18 h, read-out: MIC Range
# [9] = tested on: Ps. aeruginosa ATCC 27853; assay: MIC, agar dilution; conditions: Pseudomonas aeruginosa, ATCC27853, 18 h
# [10] = tested on: E. coli ATCC 25922; assay: MIC, agar dilution; conditions: Escherichia coli, ATCC25922, 18 h
# [11] = tested on: Clostridium difficile; assay: MIC range, recent clinical and veterinary isolates; conditions: Clostridioides difficile, 18 h, read-out: MIC Range
# [12] = tested on: Streptococcus pneumoniae; assay: MIC range, recent clinical and veterinary isolates; conditions: 18 h, read-out: MIC Range
# [13] = tested on: S. marcescens FPOR 8733; assay: MIC, agar dilution; conditions: Serratia marcescens, FPOR8733, 18 h
# [14] = tested on: S. aureus ATCC 29213; assay: MIC, agar dilution; conditions: Staphylococcus aureus, ATCC29213, 18 h, S. aureus ATCC 29213
# [15] = tested on: S. aureus UBMS 88-4; assay: MIC, agar dilution; conditions: Staphylococcus aureus, UBMS884, 18 h; S. aureus UBMS 88-4
# [16] = tested on: Citrobacter freundii; assay: MIC range, recent clinical and veterinary isolates; conditions: 18 h, read-out: MIC Range
# [17] = tested on: Streptococcus pyogenes; assay: MIC range, recent clinical and veterinary isolates; conditions: 18 h, read-out: MIC Range
# [18] = tested on: Enterococcus 12201; assay: MIC, agar dilution; conditions: Enterococcus, 12201, 18 h
# [19] = tested on: Clostridium perfringens; assay: microbe, parasite or virus in culture; conditions: [16] isolates
# [20] = tested on: E. coli J2175; assay: MIC, agar dilution; conditions: Escherichia coli, 18 h, read-out: MIC
# [21] = tested on: Bacteroides fragilis group; assay: MIC range, recent clinical and veterinary isolates; conditions: Bacteroides fragilis, 18 h, read-out: MIC Range
# [22] = tested on: E. coli UBMS 90-5; assay: microbe, parasite or virus in culture; conditions: Escherichia coli, UBMS905, 18 h, E. coli UBMS 90-5; read-out: MIC
# [23] = tested on: S. hemolyticus AVHAH 88-3; assay: MIC, agar dilution; conditions: Streptococcus pyogenes, AVHAH883, 18 h
# [24] = tested on: Staphylococcus aureus, (methicillin-susceptible); assay: MIC range, recent clinical and veterinary isolates; conditions: Staphylococcus aureus, 18 h, read-out: MIC Range
# [25] = tested on: S. aureus NEMC 8769; assay: MIC, agar dilution; conditions: Staphylococcus aureus, NEMC8769, 18 h
# [26] = tested on: Bordetella bronchiseptica (Veterinary); assay: MIC range, recent clinical and veterinary isolates; conditions: Bordetella bronchiseptica, 18 h, read-out: MIC Range
# [27] = tested on: Klebsiella oxytoca; assay: MIC range, recent clinical and veterinary isolates; conditions: 18 h, read-out: MIC Range
# [28] = tested on: E. coli J3272 Tet sens; assay: MIC, agar dilution; conditions: Escherichia coli, J3272TETSENS, 18 h
# [29] = tested on: Pasturella multocida (Veterinary); assay: MIC range, recent clinical and veterinary isolates; conditions: 18 h, [17] isolates
# [30] = tested on: S. aureus SMITH (MP); assay: MIC, agar dilution; conditions: Staphylococcus aureus, 18 h; S. aureus SMITH (MP)
# [31] = tested on: Proteus mirabilis; assay: MIC range, recent clinical and veterinary isolates; conditions: 18 h, read-out: MIC Range
# [32] = tested on: Haemophilus influenzae; assay: MIC range, recent clinical and veterinary isolates; conditions: 18 h, [15] isolates
# [33] = tested on: Proteus vulgaris; assay: MIC range, recent clinical and veterinary isolates; conditions: 18 h, read-out: MIC Range
# [34] = tested on: Enterobacter aerogenes; assay: MIC range, recent clinical and veterinary isolates; conditions: Klebsiella aerogenes, 18 h, read-out: MIC Range
# [35] = tested on: Enterobacter cloacae; assay: MIC range, recent clinical and veterinary isolates; conditions: 18 h, read-out: MIC Range
# [36] = tested on: Enterococcus faecalis; assay: MIC range, recent clinical and veterinary isolates; conditions: 18 h, read-out: MIC Range
smiles,measurement,setting,value
"CN(C)[C@@H]1C(O)=C(C(N)=O)C(=O)[C@@]2(O)C(O)=C3C(=O)c4c(O)cccc4[C@@](C)(O)[C@H]3C[C@@H]12 [T, Tetracycline]",MIC,[1],0.06 to 0.5 µg/mL
same,MIC Range,[2],0.015 to 64 µg/mL
same,MIC,[3],0.12 µg/mL
same,MIC,[4],0.5 to 4 µg/mL
same,MIC,[5],0.25 to 64 µg/mL
same,MIC,[6],2 to 32 µg/mL
same,MIC,[7],0.12 to 64 µg/mL
same,MIC,[8],8 to 16 µg/mL
same,MIC,[9],8 µg/mL
same,MIC,[10],0.5 µg/mL
same,MIC,[11],0.12 to 32 µg/mL
same,MIC,[12],0.12 to 2 µg/mL
same,MIC,[13],> 32 µg/mL
same,MIC,[14],< 0.015 µg/mL
same,MIC,[15],0.12 µg/mL
same,MIC,[16],0.5 to 16 µg/mL
same,MIC,[17],0.12 to 16 µg/mL
same,MIC,[18],32 µg/mL
same,MIC Range,[19],0.015 to 16 µg/mL
same,MIC,[20],1 µg/mL
same,MIC,[21],0.25 to 32 µg/mL
same,MIC,[22],0.5 µg/mL
same,MIC,[23],0.5 µg/mL
same,MIC,[24],0.12 to 1 µg/mL
same,MIC,[25],0.06 µg/mL
same,MIC,[26],0.12 to 0.25 µg/mL
same,MIC,[27],0.5 to 1 µg/mL
same,MIC,[28],1 µg/mL
same,MIC,[29],0.06 to 16 µg/mL
same,MIC,[30],0.12 µg/mL
same,MIC,[31],0.5 to 64 µg/mL
same,MIC,[32],1 to 32 µg/mL
same,MIC,[33],0.25 to 64 µg/mL
same,MIC,[34],0.5 to 1 µg/mL
same,MIC,[35],0.5 to 2 µg/mL
same,MIC,[36],0.12 to 64 µg/mL
